# ChEMBL document CHEMBL2157888, “The therapeutic journey of benzimidazoles: a review” (Bioorg Med Chem, 2012)
# Experiments:
# [1] = target: T1, C-C chemokine receptor type 3 (Homo sapiens, UniProt P51677); experiment: Inhibition of CCR3 receptor
# T1 sequence (P51677 whole entry): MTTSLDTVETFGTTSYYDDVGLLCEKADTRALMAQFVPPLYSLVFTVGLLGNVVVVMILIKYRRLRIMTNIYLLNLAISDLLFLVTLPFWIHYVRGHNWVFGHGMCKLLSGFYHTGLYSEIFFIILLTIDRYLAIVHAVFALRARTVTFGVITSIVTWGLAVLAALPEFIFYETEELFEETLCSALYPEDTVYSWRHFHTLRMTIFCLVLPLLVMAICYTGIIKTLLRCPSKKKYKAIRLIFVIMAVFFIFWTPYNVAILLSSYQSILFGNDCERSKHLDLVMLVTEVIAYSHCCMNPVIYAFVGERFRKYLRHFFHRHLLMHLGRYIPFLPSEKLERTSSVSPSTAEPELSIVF
# [2] = Aqueous solubility of the compound; format: physicochemical; settings: water (aqueous)
# [3] = target: T2, Gonadotropin-releasing hormone receptor (Homo sapiens, UniProt P30968); experiment: Inhibition of GnRH receptor
# T2 sequence (P30968 whole entry): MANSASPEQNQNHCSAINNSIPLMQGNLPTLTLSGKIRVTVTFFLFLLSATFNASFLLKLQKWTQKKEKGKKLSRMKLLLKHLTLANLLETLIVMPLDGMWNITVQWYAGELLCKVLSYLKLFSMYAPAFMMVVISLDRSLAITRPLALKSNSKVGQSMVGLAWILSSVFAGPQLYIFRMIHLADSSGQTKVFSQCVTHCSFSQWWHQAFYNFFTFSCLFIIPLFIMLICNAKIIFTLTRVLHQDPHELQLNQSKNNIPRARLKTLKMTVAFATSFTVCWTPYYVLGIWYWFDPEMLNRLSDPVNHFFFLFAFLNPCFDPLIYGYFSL
SMILES,Ki [1] [nM],solubility [2] [mg/mL],IC50 [3] [nM]
Fc1ccc2c(c1)nc(CC(F)(F)F)n2C1CCNCC1,100,–,–
Fc1ccc(SCCCN2CCC(n3c(CC(F)(F)F)nc4cc(F)ccc43)CC2)cc1,9,–,–
CCc1cc(CN2CCN(c3cccc4[nH]c(-c5ccc(C(C)(C)C)cc5)nc34)CC2)nn1C,–,0.055,7
CCCn1cc(CN2CCN(c3cccc4[nH]c(-c5ccc(C(C)(C)C)cc5)nc34)CC2)nc1C,–,0.1,–
